# In patent publication US8258259B2, “Macromolecular compounds having controlled stoichiometry” (Starpharma Pty Limited, priority 2005, dated 2012):
# “Also recorded” adds a separate entry of the source. Marks after values point to notes of the source that are not given here.
# Experiments:
# [1] = system: T cell tropic NL4.3 strain of HIV-1; experiment: Antiviral efficacy: MT-2 cells infected with HIV-1 NL4.3, cell viability by MTS after 6 days (IC50); format: cell-based; conditions: for EC50: MT-2 cells infected with HIV-1 NL4.3, 6 days, MTS viability; for anti-HIV activity compared with SPL7013: MT-2 cells, HIV-1 NL4.3, comparison with homogenous surface dendrimer SPL7013 (Table 24)
# Protocol: MT-2 cells are infected with the T cell tropic NL4.3 strain of HIV-1 in the presence of 6, 5-fold serial concentrations of compound in triplicate wells of a 96 well plate. In the same plate, cells are exposed to the same drug concentrations in the absence of virus to determine the cytotoxic concentrations of the compound. […] Antimicrob Agents Chemother.
# After 6 days incubation at 37° C. in a CO2 incubator, cell viability of both virus-infected and uninfected cells is determined by incubating cells for 3-4 hours with 3-(4,5-dimethylthiazol-2-yl)-5-(3-carboxymethoxyphenyl)-2-(4-sulfophenyl)-2H-tetrazolium (MTS) according to manufacturer's instructions (CellTiter 96 AQueous One Solution Cell Proliferation assay (Promega, Madison Wis.)).
# [2] = Plasma clearance studies for radiolabelled (tritiated) macromolecules: plasma, urine, faeces and organ tritium after 5 mg/kg intravenous dose; format: in vivo; conditions: rats; for plasma T½: tritiated macromolecule; for % of 3H dose excreted in total urine: urine collected 0-30 hr
# Protocol: Tritiated poly-lysine macromolecules were dissolved in phosphate buffered saline (PBS), pH 7.4) and frozen until required. Rats were intravenously administered 5 mg/kg of macromolecule via an indwelling cannula (implanted in the jugular vein) over 2 min.
# Immediately following dosing, a blood sample (t=0) was collected via an indwelling carotid artery cannula and placed in a heparinised eppendorf tube.
# Blood samples were then collected at predetermined intervals for the following 30 hr, and the plasma separated. In addition, urine and faeces were collected at 0-8 hr, 8-24 hr and 24-30 hr. At sacrifice (30 hr after the intravenous dose) the major organs (liver, kidneys, spleen, pancreas, heart, lung and brain) were collected and weighed. The tritium content of plasma, urine, faeces and the various tissue samples were determined using validated scintillation assays.
# [3] = system: T cell tropic NL4.3 strain of HIV-1; conditions: positive control of the assay; Dezzutti et al. 2004; cited from earlier work
Substance,EC50 [1],plasma T½ [2],further results
"BHALys[GlyLys]2[Lys]4[Boc]6[ε,ε-COCH2O-3,6-Naph (SO3Na)2]2 [Example 49]",2.2 µg/mL,,
"BHALys[GlyLys]2[Lys]4[COCH2O-3,6-Naph(SO3Na)2]6 [ε,ε-CBz]2 [Example 48]",0.13 µg/mL,,anti-HIV activity compared with SPL7013 [1]: considerably more active than SPL7013; also recorded: significantly more active than SPL7013
"BHALys[GlyLys]2[Lys]4[α,α-Boc]2[ε,α-COCH2O-3,6-Naph(SO3Na)2]2[ε,ε-COCH2O-3,6-Naph(SO3Na)2]2 [Example 42]",10.6 µg/mL,,
"BHALys[GlyLys]2[Lys]4[α,α-COCH2O-3,6-Naph(SO3Na)2]2[α,ε-COCH2O-3,6-Naph(SO3Na)2]2[ε,α-COC5H12]2[ε,ε-COC5H12]2 [Example 43]",0.24 µg/mL,,
"BHALys[Lys]2[GlyLys]4[Lys]8[α,α-Boc]4[α,ε-Boc]4[ε,α-COCH2O-3,6-Naph(SO3Na)2]4 [ε,ε-COCH2O-3,6-Naph(SO3Na)2]4 [Example 44]",0.33 µg/mL,,
"BHALys[Lys]2[GlyLys]4[Lys]8[α,α-COCH2O-3,6-Naph(SO3Na)2]4[α,εCOCH2O-3,6-Naph(SO3Na)2]4[ε,α-COC5H12]4[ε,ε-COC5H12]4 [Example 45]",0.37 µg/mL,,
"BHALys[Lys]2[α,ε-Lys][CBz]2[Lys]3 [COCH2O-3,6-Naph(SO3Na)2]6 [Example 46]",0.14 µg/mL,,anti-HIV activity compared with SPL7013 [1]: considerably more active than SPL7013; also recorded: significantly more active than SPL7013
"BHALys[Lys]2[α,ε-Lys][COCH2O-3,6-Naph(SO3Na)2]2[Lys]3 [Boc]6 [Example 47]",>50 µg/mL,,
BHALys[Lys]4[Su(NPN)2]8[γ-CO-MTX-α-OtBu]8[COPEG24]8 [Example 60],,3.9 ± 0.1^a h,
BHALys[Lys]4[α-CO-4-PhSO3Na]4[ε-COC5H12]4 [Example 31],344 µg/mL,,
"BHALys[Lys]4[α-COC5H12]4[ε-COCH2O-3,6-Naph(SO3Na)2]4 [Example 30]",58.3 µg/mL,,
"BHALys[Lys]4[α-COCH2O-3,6-Naph(SO3Na)2]4[ε-COC5H12]4 [Example 29]",23.8 µg/mL,,
BHALys[Lys]8[PEG2KD]16 [Example 54],,23.90 ± 2.56 h,% of 3H dose excreted in total urine [2]: 26.0 ± 4.6%
BHALys[Lys]8[PEG200]16 [Example 51],,0.25 ± 0.04 h,% of 3H dose excreted in total urine [2]: 82.2 ± 6.4%
BHALys[Lys]8[Su(NPN)2]16 [γ-CO-MTX-α-OtBu]16 [COPEG12]16 [Example 58],,9.0 ± 0.2^a h,
BHALys[Lys]8[Su(NPN)2]16 [γ-CO-MTX-α-OtBu]16 [COPEG24]16 [Example 61],,21.0 ± 1.7 h,
BHALys[Lys]8[Su(NPN)2]16 [γ-CO-MTX-α-OtBu]16 [COPEG2300]16 [Example 63],,34.1 ± 1.1 h,

Substance,EC50 [1],plasma T½ [2],further results
"BHALys[Lys]8[α-CO2PEG3]8[ε-CO-3,5-Ph(SO3Na)2]8 [Example 34]",84.5 µg/mL,,
BHALys[Lys]8[α-CO2PEG3]8[ε-CO-4-PhSO3Na]8 [Example 35],>500 µg/mL,,
"BHALys[Lys]8[α-CO-3,5-Ph(SO3Na)2]8[ε-CBz]8 [Example 37]",2 µg/mL,,
BHALys[Lys]8[α-CO-4-Ph(SO3Na)]8[ε-CBz]8 [Example 38],2.2 µg/mL,,
"BHALys[Lys]8[α-COCH2O-3,6-Naph(SO3Na)2]8[ε-CBz]8 [Example 36]",3.2 µg/mL,,
BHALys[Lys]16 [PEG2KD]32 [Example 55],,75.35 ± 9.3 h,% of 3H dose excreted in total urine [2]: 3.1 ± 1.9%
BHALys[Lys]16 [PEG200]32 [Example 52],,0.72 ± 0.03 h,% of 3H dose excreted in total urine [2]: 80.4 ± 13.6%
BHALys[Lys]16 [PEG570]32 [Example 53],,9.45 ± 0.42 h,% of 3H dose excreted in total urine [2]: 42.9 ± 2.7%
BHALys[Lys]16 [Su(NPN)2]32 [γ-CO-MTX-α-OtBu]32 [COPEG12]32 [Example 59],,23.7 ± 5.0 h,
BHALys[Lys]16 [Su(NPN)2]32 [γ-CO-MTX-α-OtBu]32 [COPEG24]32 [Example 62],,51.4 ± 2.7 h,
"BHALys[Lys]16 [α-CO-3,5-Ph(SO3Na)2]16[ε-CBz]16 [Example 40]",3.2 µg/mL,,
BHALys[Lys]16 [α-CO-4-Ph(SO3Na)]16 [ε-CBz]16 [Example 41],4.2 µg/mL,,
"BHALys[Lys]16 [α-COCH2O-3,6-Naph(SO3Na)2]16 [ε-CBz]16 [Example 39]",2.4 µg/mL,,
"BHALys[Lys]16[COCH2O-3,6-Naph(SO3Na)2]32 [SPL7013, reference compound]",1.5 µg/mL,,HIV replication [3]: inhibits HIV replication
"DAH [Lys]8[α-CO-3,5-Ph(SO3Na)2]8[ε-COC5H12]8 [Example 32]",5.8 µg/mL,,
"DAH [Lys]8[α-COCH2O-3,6-Naph(SO3Na)2]8[ε-COC5H12]8 [Example 33]",0.71 µg/mL,,
